Laboratory results as given in article PMC9115913 (Biological chemistry, 2022).
In brackets after ≈: the same amount, converted by molar mass. Several values for one entry are separate records, joined by “and”; a condition that tells them apart may be missing. Identical values can stand only once. Like-named read-outs stand apart in the source and are kept apart here.

Legend:
PBP2x = PBP2x (Streptococcus pneumoniae, UniProt P59676); test: cell-based; type: binding
PBP3 = target: T1, PBP3 (Streptococcus pneumoniae, UniProt Q8DQ99); conditions: read-out: IC50 PBP3
T1 sequence (Q8DQ99 23-413): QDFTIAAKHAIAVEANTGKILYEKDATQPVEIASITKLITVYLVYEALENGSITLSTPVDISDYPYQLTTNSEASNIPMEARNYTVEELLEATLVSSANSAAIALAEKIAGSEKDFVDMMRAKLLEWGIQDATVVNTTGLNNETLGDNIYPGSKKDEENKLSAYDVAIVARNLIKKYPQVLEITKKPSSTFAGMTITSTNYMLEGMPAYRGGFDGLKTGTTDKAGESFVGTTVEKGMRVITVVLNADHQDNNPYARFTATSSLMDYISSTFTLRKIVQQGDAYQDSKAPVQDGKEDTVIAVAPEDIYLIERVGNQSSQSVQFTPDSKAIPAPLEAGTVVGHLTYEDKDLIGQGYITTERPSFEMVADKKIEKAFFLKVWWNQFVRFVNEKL

S. pneumoniae IU1945 = test: Antimicrobial susceptibility assay; type: cell-based; conditions: Streptococcus pneumoniae
PBP1b = PBP1b (Streptococcus pneumoniae, UniProt Q7CRA4); type: binding; conditions: read-out: IC50 PBP1b
PBP2a = PBP2a (Streptococcus pneumoniae, UniProt Q8DNB6); test: cell-based; type: binding
PBP2a, sequence (Q8DNB6 whole entry): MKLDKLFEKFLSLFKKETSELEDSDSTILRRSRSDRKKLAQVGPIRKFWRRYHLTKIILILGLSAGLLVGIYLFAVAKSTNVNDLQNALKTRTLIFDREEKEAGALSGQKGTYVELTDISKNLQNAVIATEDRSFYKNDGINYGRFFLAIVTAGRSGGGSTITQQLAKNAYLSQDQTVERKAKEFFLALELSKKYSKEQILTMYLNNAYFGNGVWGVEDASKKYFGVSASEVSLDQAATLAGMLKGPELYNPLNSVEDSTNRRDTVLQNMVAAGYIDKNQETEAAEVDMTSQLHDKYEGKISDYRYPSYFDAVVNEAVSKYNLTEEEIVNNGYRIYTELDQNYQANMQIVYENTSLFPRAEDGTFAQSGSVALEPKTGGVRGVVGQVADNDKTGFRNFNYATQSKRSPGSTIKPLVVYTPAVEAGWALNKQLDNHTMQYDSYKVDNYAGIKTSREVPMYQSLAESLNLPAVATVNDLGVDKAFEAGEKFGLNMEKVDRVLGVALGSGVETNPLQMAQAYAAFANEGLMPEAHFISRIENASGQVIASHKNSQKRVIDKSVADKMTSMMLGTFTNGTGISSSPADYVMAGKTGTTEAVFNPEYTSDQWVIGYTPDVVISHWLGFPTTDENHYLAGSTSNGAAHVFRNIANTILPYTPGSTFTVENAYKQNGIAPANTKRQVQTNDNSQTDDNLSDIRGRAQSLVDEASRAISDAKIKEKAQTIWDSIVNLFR

PBP1a = PBP1a (Streptococcus pneumoniae, UniProt Q8DR59); test: cell-based; type: binding; conditions: IC50 PBPla
PBP1a, sequence (Q8DR59 whole entry): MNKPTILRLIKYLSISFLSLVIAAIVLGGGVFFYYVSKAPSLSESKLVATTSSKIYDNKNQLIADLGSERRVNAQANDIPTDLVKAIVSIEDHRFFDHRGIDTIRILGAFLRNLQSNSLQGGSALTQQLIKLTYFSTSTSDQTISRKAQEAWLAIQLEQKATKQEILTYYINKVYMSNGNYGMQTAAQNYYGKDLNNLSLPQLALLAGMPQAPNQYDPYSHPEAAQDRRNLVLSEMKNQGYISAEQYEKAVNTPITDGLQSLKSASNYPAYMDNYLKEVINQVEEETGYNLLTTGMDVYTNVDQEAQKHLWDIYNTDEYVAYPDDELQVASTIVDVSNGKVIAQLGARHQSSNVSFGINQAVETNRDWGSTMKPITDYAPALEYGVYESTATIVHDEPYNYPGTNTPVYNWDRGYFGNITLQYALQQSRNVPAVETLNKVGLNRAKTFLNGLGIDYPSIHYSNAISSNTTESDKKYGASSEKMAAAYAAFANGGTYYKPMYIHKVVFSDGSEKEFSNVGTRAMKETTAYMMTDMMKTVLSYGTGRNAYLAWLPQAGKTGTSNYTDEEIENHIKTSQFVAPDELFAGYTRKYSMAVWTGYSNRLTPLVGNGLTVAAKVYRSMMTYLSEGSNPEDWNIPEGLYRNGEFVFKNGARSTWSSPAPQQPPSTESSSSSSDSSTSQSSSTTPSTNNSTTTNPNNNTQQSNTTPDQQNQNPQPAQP

PBP2b = PBP2b (Streptococcus pneumoniae, UniProt P0A3M6); test: cell-based; type: binding
PBP2b, sequence (P0A3M6 whole entry): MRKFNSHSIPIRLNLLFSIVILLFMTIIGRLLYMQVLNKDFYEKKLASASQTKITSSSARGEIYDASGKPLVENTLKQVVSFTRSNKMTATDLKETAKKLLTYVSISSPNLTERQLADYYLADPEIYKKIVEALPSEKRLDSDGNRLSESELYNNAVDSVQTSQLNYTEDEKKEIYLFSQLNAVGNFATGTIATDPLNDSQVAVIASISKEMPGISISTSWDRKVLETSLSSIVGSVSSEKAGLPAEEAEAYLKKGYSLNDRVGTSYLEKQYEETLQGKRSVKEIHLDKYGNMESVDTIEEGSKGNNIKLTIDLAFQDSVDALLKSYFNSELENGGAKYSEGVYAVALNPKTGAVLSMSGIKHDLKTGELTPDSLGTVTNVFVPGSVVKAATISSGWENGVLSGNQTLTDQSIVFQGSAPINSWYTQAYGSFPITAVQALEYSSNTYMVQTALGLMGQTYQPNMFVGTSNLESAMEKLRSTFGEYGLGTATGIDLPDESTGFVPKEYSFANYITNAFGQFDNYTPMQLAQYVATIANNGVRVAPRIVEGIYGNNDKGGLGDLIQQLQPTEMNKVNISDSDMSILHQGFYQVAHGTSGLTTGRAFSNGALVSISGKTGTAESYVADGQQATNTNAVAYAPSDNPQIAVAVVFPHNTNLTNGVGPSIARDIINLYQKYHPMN

[1] = test system: penicillin-binding proteins (PBPs); conditions: S. pneumoniae, previous assessment; ref Kocaoglu et al. 2015; cited from earlier work
[2] = test system: penicillin-binding proteins (PBPs); conditions: line of the Δpbp1b mutant strain; 4-fold rule
[3] = strain IU1945, average ± SEM of two experiments
[4] = Δpbp1b mutant strain, average ± SEM
[5] = Δpbp1a mutant strain, average ± SEM

PBP2x, sequence (P59676 whole entry): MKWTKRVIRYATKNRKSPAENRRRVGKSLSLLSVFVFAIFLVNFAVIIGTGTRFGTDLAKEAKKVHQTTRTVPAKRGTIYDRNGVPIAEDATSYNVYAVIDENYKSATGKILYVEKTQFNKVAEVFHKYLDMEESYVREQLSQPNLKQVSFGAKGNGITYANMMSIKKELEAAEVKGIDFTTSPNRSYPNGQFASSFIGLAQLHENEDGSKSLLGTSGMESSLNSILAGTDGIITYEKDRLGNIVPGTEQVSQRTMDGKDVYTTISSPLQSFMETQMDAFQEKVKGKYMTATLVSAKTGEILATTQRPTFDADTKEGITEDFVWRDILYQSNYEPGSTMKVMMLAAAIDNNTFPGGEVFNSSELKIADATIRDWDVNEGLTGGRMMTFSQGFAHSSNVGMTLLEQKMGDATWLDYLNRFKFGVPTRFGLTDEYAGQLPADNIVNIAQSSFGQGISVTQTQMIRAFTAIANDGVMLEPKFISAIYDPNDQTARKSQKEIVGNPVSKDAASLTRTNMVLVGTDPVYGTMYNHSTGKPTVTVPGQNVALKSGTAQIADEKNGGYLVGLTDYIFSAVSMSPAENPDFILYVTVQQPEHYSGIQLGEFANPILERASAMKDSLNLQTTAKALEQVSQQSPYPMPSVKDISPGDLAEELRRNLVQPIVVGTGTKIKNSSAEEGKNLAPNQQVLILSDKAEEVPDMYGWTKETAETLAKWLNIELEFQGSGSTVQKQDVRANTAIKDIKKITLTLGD

| SMILES | IC50 (PBP2x; [3]) | IC50 (PBP2x; [4]) [µM] | IC50 (PBP3; [3]) | IC50 (PBP3; [5]) [µM] | IC50 (PBP3; [4]) [µM] | MIC (S. pneumoniae IU1945) [µM] | IC50 (PBP1b; [3]) [µM] | IC50 (PBP1b; [5]) [µM] | IC50 (PBP2a; [3]) [µM] | IC50 (PBP2a; [5]) [µM] | IC50 (PBP2a; [4]) [µM] | IC50 (PBP1a; [3]) [µM] | IC50 (PBP1a; [4]) [µM] | IC50 (PBP2b; [3]) [µM] | IC50 (PBP2b; [5]) [µM] | IC50 (PBP2b; [4]) [µM] | PBP selectivity (previous report) [1] | IC50 (PBP2x; [5]) [µM] | PBP selectivity [2] |
| --- | --- | --- | --- | --- | --- | --- | --- | --- | --- | --- | --- | --- | --- | --- | --- | --- | --- | --- | --- |
| COCC1=C(C(=O)O)N2C(=O)[C@@H](NC(=O)/C(=N\OC)c3csc(N)n3)[C@H]2SC1 [Cefpodoxime, cefpodoxime] | 0.041 ± 0.015 µM | 0.035 ± 0.018 | 0.032 ± 0.005 µM | 0.032 ± 0.004 | 0.018 ± 0.004 | 0.01 (≈ 4.27 ng/mL) | 0.907 ± 0.406 | 0.301 ± 0.071 | 0.341 ± 0.125 | 0.621 ± 0.161 | 0.179 ± 0.081 | 1.92 ± 0.581 | 2.78 ± 0.886 | 0.522 ± 0.231 | > 1000 | > 1000 | – | – | – |
| C[C@@H](O)[C@H]1C(=O)N2C(C(=O)O)=C(S[C@@H]3CN[C@H](CNS(N)(=O)=O)C3)[C@H](C)[C@H]12 [Doripenem, doripenem] | – | – | – | – | – | – | – | – | – | – | – | – | – | – | – | – | co-selectivity towards PBP3 along with PBP1a, but these molecules were additionally co-selective for PBP2x | – | – |
| Cc1onc(-c2c(F)cccc2Cl)c1C(=O)N[C@@H]1C(=O)N2[C@@H]1SC(C)(C)[C@@H]2C(=O)O [Flucloxacillin, flucloxacillin] | 0.83 µM and 0.832 µM | 2.01 ± 0.878 | 0.91 µM and 0.911 µM | 0.783 ± 0.581 | 1.95 ± 0.884 | 1 (≈ 454 ng/mL) | 17.7 ± 4.16 | 50.5 ± 2.03 | 35.3 ± 26 | 16 ± 2.01 | 51.5 ± 5.16 | 12.4 ± 4.2 | 11 ± 2.47 | 18.5 ± 11.1 | 16.8 ± 9.3 | 33.5 ± 16 | – | 0.889 ± 0.389 | – |
| Cc1onc(-c2c(Cl)cccc2Cl)c1C(=O)N[C@@H]1C(=O)N2[C@@H]1SC(C)(C)[C@@H]2C(=O)O [Dicloxacillin, dicloxacillin] | 0.042 ± 0.055 µM | – | 0.065 ± 0.051 µM | – | – | 0.01 (≈ 4.7 ng/mL) | 1.14 ± 1.37 | – | 4.84 ± 4.74 | – | – | 0.385 ± 0.261 | – | 8.7 | – | – | – | – | – |
| CC1(C)S[C@@H]2[C@H](NC(=O)[C@H](NC(=O)N3CCNC3=O)c3ccccc3)C(=O)N2[C@H]1C(=O)O [Azlocillin, azlocillin] | 0.081 ± 0.018 µM | – | 0.065 ± 0.013 µM | – | – | – | 0.963 ± 0.477 | – | 1.4 ± 0.693 | – | – | 1.53 ± 0.532 | – | 0.294 ± 0.131 | – | – | – | – | – |
| CO[C@@]1(NC(=O)C2SC(=C(C(N)=O)C(=O)O)S2)C(=O)N2C(C(=O)O)=C(CSc3nnnn3C)CS[C@@H]21 (stereo partly shown) [Cefotetan, cefotetan] | 14.4 ± 5.77 µM | – | 0.069 ± 0.015 µM | – | – | 1 (≈ 576 ng/mL) | 0.538 ± 0.201 | – | 54.3 ± 21.5 | – | – | 14.6 ± 6.7 | – | – | – | – | – | – | – |
| N[C@@H](C(=O)N[C@@H]1C(=O)N2C(C(=O)O)=C(Cl)CS[C@H]12)c1ccccc1 [Cefaclor, cefaclor] | 3.67 ± 2.52 µM | – | 0.034 ± 0.009 µM | – | – | 10 (≈ 3680 ng/mL) | 8.59 ± 3.63 | – | – | – | – | 3.6 ± 1.33 | – | 55.4 ± 26.3 | – | – | – | – | – |
| CO/N=C(\C(=O)N[C@@H]1C(=O)N2C(C(=O)[O-])=C(C[n+]3cccc4c3CCC4)CS[C@H]12)c1csc(N)n1 [Cefpirome, cefpirome] | 0.002 ± 0.001 µM | – | – | – | – | 0.01 (≈ 5.15 ng/mL) | 0.024 ± 0.008 | – | 0.016 ± 0.004 | – | – | 0.051 ± 0.011 | – | 5.53 ± 2.99 | – | – | – | – | – |
| CO/N=C(\C(=O)N[C@@H]1C(=O)N2C(C(=O)[O-])=C(C[N+]3(C)CCCC3)CS[C@H]12)c1csc(N)n1 [Cefepime, cefepime] | – | – | – | – | – | 0.01 (≈ 4.81 ng/mL) | – | – | – | – | – | – | – | – | – | – | – | – | – |
| Cc1onc(-c2ccccc2Cl)c1C(=O)N[C@@H]1C(=O)N2[C@@H]1SC(C)(C)[C@@H]2C(=O)O [Cloxacillin, cloxacillin] | 0.119 ± 0.062 µM | – | 0.102 ± 0.092 µM | – | – | – | 0.977 ± 0.372 | – | 4.47 ± 2.24 | – | – | 0.561 ± 0.219 | – | 2.36 ± 1.77 | – | – | – | – | – |
| C[C@@H](O)[C@H]1C(=O)N2C(C(=O)O)=C(S[C@@H]3CN[C@H](C(=O)N(C)C)C3)[C@H](C)[C@H]12 [Meropenem, meropenem] | – | – | – | – | – | – | – | – | – | – | – | – | – | – | – | – | co-selectivity towards PBP3 along with PBP1a, but these molecules were additionally co-selective for PBP2x | – | – |
| CC1(C)S[C@@H]2[C@H](NC(=O)C(C(=O)O)c3ccccc3)C(=O)N2[C@H]1C(=O)O (stereo partly shown) [Carbenicillin, carbenicillin] | 0.962 ± 0.506 µM | – | 0.018 ± 0.011 µM | – | – | 0.1 (≈ 37.8 ng/mL) | 0.859 ± 0.285 | – | 5.64 ± 4.47 | – | – | 1.11 ± 0.367 | – | 2.12 ± 1.15 | – | – | – | – | – |
| CCOc1ccc2ccccc2c1C(=O)N[C@@H]1C(=O)N2[C@@H]1SC(C)(C)[C@@H]2C(=O)O [Nafcillin, nafcillin] | 0.014 ± 0.006 µM | – | 0.125 ± 0.061 µM | – | – | 0.01 (≈ 4.14 ng/mL) | 32.4 ± 3.78 | – | 4.54 ± 1.75 | – | – | 94.5 ± 88.6 | – | 1.27 ± 0.306 | – | – | – | – | – |
| C[C@@H](O)[C@H]1C(=O)N2C(C(=O)O)=C(SCCN=CN)C[C@H]12 [Imipenem, imipenem] | 0.048 ± 0.013 µM | – | 0.007 ± 0.001 µM | – | – | 0.1 (≈ 29.9 ng/mL) | 0.052 ± 0.022 | – | 0.062 ± 0.021 | – | – | 0.027 ± 0.005 | – | 0.052 ± 0.011 | – | – | – | – | – |
| C=CC1=C(C(=O)O)N2C(=O)[C@@H](NC(=O)/C(=N\OCC(=O)O)c3csc(N)n3)[C@H]2SC1 [Cefixime, cefixime] | 0.336 ± 0.224 µM | – | 0.026 ± 0.007 µM | – | – | 0.1 (≈ 45.3 ng/mL) | 8.96 ± 4.6 | – | 4.85 ± 2.06 | – | – | 32.3 ± 34.4 | – | > 1000 | – | – | – | – | – |
| C[C@@H](O)[C@H]1C(=O)N2C(C(=O)O)=C(S[C@@H]3CN[C@H](C(=O)Nc4cccc(C(=O)O)c4)C3)[C@H](C)[C@H]12 [Ertapenem, ertapenem] | 0.752 ± 0.817 µM | 0.729 ± 0.122 | 0.061 ± 0.043 µM | 0.012 ± 0.006 | 0.031 ± 0.011 | 0.01 (≈ 4.76 ng/mL) | 0.137 ± 0.375 | 0.326 ± 0.082 | 26.8 ± 4.08 | – | 6.69 ± 0.401 | 0.118 ± 0.064 | 0.038 ± 0.012 | 13.8 ± 3.49 | 3.86 ± 7.4 | > 1000 | – | 0.341 ± 0.251 | co-selectivity towards PBP3 and PBP1a and 3, la |
| CC1(C)S[C@@H]2[C@H](NC(=O)[C@H](C(=O)O)c3ccsc3)C(=O)N2[C@H]1C(=O)O [Ticarcillin, ticarcillin] | 0.251 ± 0.109 µM | – | 0.146 ± 0.087 µM | – | – | – | 1.01 ± 0.331 | – | 7.74 ± 2.6 | – | – | 0.827 ± 0.365 | – | 3.34 ± 1.48 | – | – | – | – | – |
| C[C@@H](O)[C@H]1C(=O)N2C(C(=O)[O-])=C(SC3Cn4cnc[n+]4C3)[C@H](C)[C@H]12 (stereo partly shown) [Biapenem, biapenem] | – | – | 0.006 ± 0.001 µM | – | – | 0.01 (≈ 3.5 ng/mL) | 6.82 ± 4.15 | – | 0.146 | – | – | 0.06 ± 0.021 | – | 0.111 ± 0.106 | – | – | – | – | – |
